In patent US11498899B2, “Nitrone herbicides” (FMC Corporation, priority 2016, dated 2022):

Legend:
[1] = system: pigweed (Amaranthus retroflexus); assay: Test A postemergence, visual injury rating 0-100; format: in vivo; conditions: 0 to 100 scale
[2] = system: blackgrass (Alopecurus myosuroides); assay: Test A postemergence, visual injury rating 0-100; format: in vivo; conditions: 0 to 100 scale
[3] = system: wheat (Triticum aestivum); assay: Test A postemergence, visual injury rating 0-100; format: in vivo; conditions: 0 to 100 scale
[4] = system: galium (catchweed bedstraw, Galium aparine); assay: Test A postemergence, visual injury rating 0-100; format: in vivo; conditions: 0 to 100 scale
[5] = system: barnyardgrass (Echinochloa crus-galli); assay: Test A postemergence, visual injury rating 0-100; format: in vivo; conditions: 0 to 100 scale
[6] = system: ryegrass, Italian (Italian ryegrass, Lolium multiflorum); assay: Test A postemergence, visual injury rating 0-100; format: in vivo; conditions: 0 to 100 scale
[7] = system: foxtail, giant (giant foxtail, Setaria faberii); assay: Test A postemergence, visual injury rating 0-100; format: in vivo; conditions: 0 to 100 scale
corn (Zea mays) = assay: Test A postemergence, visual injury rating 0-100; format: in vivo; conditions: 0 to 100 scale
[8] = system: ragweed (common ragweed, Ambrosia elatior); assay: Test A postemergence, visual injury rating 0-100; format: in vivo; conditions: 0 to 100 scale
kochia (Kochia scoparia) [9] = assay: Test A postemergence, visual injury rating 0-100; format: in vivo; conditions: 0 to 100 scale
[10] = system: pigweed (Amaranthus retroflexus); assay: Test A preemergence, visual injury rating 0-100; format: in vivo
[11] = system: ryegrass, Italian (Italian ryegrass, Lolium multiflorum); assay: Test A preemergence, visual injury rating 0-100; format: in vivo
[12] = system: foxtail, giant (giant foxtail, Setaria faberii); assay: Test A preemergence, visual injury rating 0-100; format: in vivo
[13] = system: ragweed (common ragweed, Ambrosia elatior); assay: Test A preemergence, visual injury rating 0-100; format: in vivo
kochia (Kochia scoparia) [14] = assay: Test A preemergence, visual injury rating 0-100; format: in vivo
[15] = system: barnyardgrass (Echinochloa crus-galli); assay: Test A preemergence, visual injury rating 0-100 (0 no effect, 100 complete control); format: in vivo
[16] = system: ducksalad (Heteranthera limosa); assay: Test B flooded paddy test, visual rating 0-100; conditions: Flood, 250 g ai/ha, applied to paddy water, rated after 13 to 15 days
rice (Oryza sativa) = assay: Test B flooded paddy test, visual rating 0-100 (0 no effect, 100 complete control); conditions: Flood, 250 g ai/ha, applied to paddy water, rated after 13 to 15 days
[17] = system: barnyardgrass (Echinochloa crus-galli); assay: Test B flooded paddy test, visual rating 0-100; conditions: Flood, 250 g ai/ha, applied to paddy water, rated after 13 to 15 days
[18] = 31 g ai/ha, 0 to 100 scale (0 no effect, 100 complete control), approx. 10 days

| SMILES | Pigweed plant response rating ([1]; 125 g ai/ha) | Blackgrass plant response rating ([2]; 125 g ai/ha) | Wheat plant response rating ([3]; 125 g ai/ha) | Galium plant response rating ([4]; 125 g ai/ha) | Barnyardgrass plant response rating ([5]; 125 g ai/ha) | Ryegrass, Italian plant response rating ([6]; 125 g ai/ha) | Foxtail, Giant plant response rating ([7]; 125 g ai/ha) | Corn plant response rating (corn (Zea mays); 125 g ai/ha) | Ragweed plant response rating ([8]; 125 g ai/ha) | Kochia plant response rating (kochia (Kochia scoparia) [9]; 125 g ai/ha) | Pigweed plant response rating (0 to 100 scale) ([10]; 125 g ai/ha) | Ryegrass, Italian plant response rating (0 to 100 scale) ([11]; 125 g ai/ha) | Foxtail, Giant plant response rating (0 to 100 scale) ([12]; 125 g ai/ha) | Ragweed plant response rating (0 to 100 scale) ([13]; 125 g ai/ha) | Kochia plant response rating (0 to 100 scale) (kochia (Kochia scoparia) [14]; 125 g ai/ha) | Barnyardgrass plant response rating (0 to 100 scale) ([15]; 125 g ai/ha) | Ducksalad plant response rating (0 to 100 scale) [16] | Rice plant response rating (0 to 100 scale) (rice (Oryza sativa)) | Barnyardgrass plant response rating (0 to 100 scale) [17] | Pigweed plant response rating ([1]; 500 g ai/ha) | other results |
| --- | --- | --- | --- | --- | --- | --- | --- | --- | --- | --- | --- | --- | --- | --- | --- | --- | --- | --- | --- | --- | --- |
| CC1=[N+]([O-])[C@@H](C(=O)Nc2cccc(F)c2F)[C@H](c2cccc(Oc3ncc(F)cc3F)c2)C1 [Compound 70] | 20 | 30 | 0 | 30 | 70 | 0 | 0 | 0 | 0 | 0 | 0 | 0 | 90 | 0 | 0 | 80 | 0 | 0 | 0 | – | Pigweed plant response rating ([1]; 31 g ai/ha): 0; Blackgrass plant response rating ([2]; 31 g ai/ha): 0; Wheat plant response rating ([3]; 31 g ai/ha): 0; Galium plant response rating ([4]; 31 g ai/ha): 0; Barnyardgrass plant response rating ([5]; 31 g ai/ha): 20; Ryegrass, Italian plant response rating ([6]; 31 g ai/ha): 0; Foxtail, Giant plant response rating ([7]; 31 g ai/ha): 0; Corn plant response rating (corn (Zea mays); 31 g ai/ha): 0; Ragweed plant response rating ([8]; 31 g ai/ha): 0; Kochia plant response rating (kochia (Kochia scoparia) [9]; 31 g ai/ha): 0; Pigweed plant response rating [10, 18]: 0; Ryegrass, Italian plant response rating [11, 18]: 0; Foxtail, Giant plant response rating [12, 18]: 20; Ragweed plant response rating [13, 18]: 0; Kochia plant response rating (kochia (Kochia scoparia) [14]; [18]): 0; Barnyardgrass plant response rating [15, 18]: 40 |
| CC1=[N+]([O-])[C@@H](C(=O)Nc2cccc(F)c2F)[C@H](c2cccc(Oc3ccc(F)cn3)c2)C1 [Compound 84] | 10 | 90 | 0 | 40 | 40 | 20 | 50 | 0 | 0 | 0 | 0 | 0 | 30 | 0 | 0 | 10 | 0 | 0 | 0 | 40 | Blackgrass plant response rating ([2]; 500 g ai/ha): 90; Wheat plant response rating ([3]; 500 g ai/ha): 50; Galium plant response rating ([4]; 500 g ai/ha): 40; Barnyardgrass plant response rating ([5]; 500 g ai/ha): 90; Ryegrass, Italian plant response rating ([6]; 500 g ai/ha): 90; Foxtail, Giant plant response rating ([7]; 500 g ai/ha): 70; Corn plant response rating (corn (Zea mays); 500 g ai/ha): 40; Ragweed plant response rating ([8]; 500 g ai/ha): 30; Kochia plant response rating (kochia (Kochia scoparia) [9]; 500 g ai/ha): 20; Pigweed plant response rating (0 to 100 scale) ([10]; 500 g ai/ha): 30; Ryegrass, Italian plant response rating (0 to 100 scale) ([11]; 500 g ai/ha): 80; Foxtail, Giant plant response rating (0 to 100 scale) ([12]; 500 g ai/ha): 90; Ragweed plant response rating (0 to 100 scale) ([13]; 500 g ai/ha): 20; Kochia plant response rating (0 to 100 scale) (kochia (Kochia scoparia) [14]; 500 g ai/ha): 50; Barnyardgrass plant response rating (0 to 100 scale) ([15]; 500 g ai/ha): 90 |
| CC1=[N+]([O-])C(C(=O)Nc2cccc(F)c2F)C(c2cccc(Cl)n2)C1 (stereo not shown) [Compound 89] | 0 | 0 | 0 | 0 | 20 | 0 | 0 | 0 | 0 | 0 | 0 | 0 | 0 | 0 | 0 | 0 | 30 | 0 | 0 | 0 | Blackgrass plant response rating ([2]; 500 g ai/ha): 0; Wheat plant response rating ([3]; 500 g ai/ha): 0; Galium plant response rating ([4]; 500 g ai/ha): 0; Barnyardgrass plant response rating ([5]; 500 g ai/ha): 30; Ryegrass, Italian plant response rating ([6]; 500 g ai/ha): 0; Foxtail, Giant plant response rating ([7]; 500 g ai/ha): 0; Corn plant response rating (corn (Zea mays); 500 g ai/ha): 0; Ragweed plant response rating ([8]; 500 g ai/ha): 0; Kochia plant response rating (kochia (Kochia scoparia) [9]; 500 g ai/ha): 0; Pigweed plant response rating (0 to 100 scale) ([10]; 500 g ai/ha): 0; Ryegrass, Italian plant response rating (0 to 100 scale) ([11]; 500 g ai/ha): 0; Foxtail, Giant plant response rating (0 to 100 scale) ([12]; 500 g ai/ha): 30; Ragweed plant response rating (0 to 100 scale) ([13]; 500 g ai/ha): 0; Kochia plant response rating (0 to 100 scale) (kochia (Kochia scoparia) [14]; 500 g ai/ha): 0; Barnyardgrass plant response rating (0 to 100 scale) ([15]; 500 g ai/ha): 40 |
| CC1=[N+]([O-])C(C(=O)Nc2cccc(F)c2F)C(c2cccc(C(F)(F)F)n2)C1 (stereo not shown) [Compound 90] | 0 | 30 | 0 | 20 | 10 | 0 | 20 | 0 | 0 | 0 | 0 | 0 | 50 | 0 | 0 | 90 | 90 | 0 | 15 | 0 | Blackgrass plant response rating ([2]; 500 g ai/ha): 50; Wheat plant response rating ([3]; 500 g ai/ha): 0; Galium plant response rating ([4]; 500 g ai/ha): 20; Barnyardgrass plant response rating ([5]; 500 g ai/ha): 80; Ryegrass, Italian plant response rating ([6]; 500 g ai/ha): 0; Foxtail, Giant plant response rating ([7]; 500 g ai/ha): 90; Corn plant response rating (corn (Zea mays); 500 g ai/ha): 0; Ragweed plant response rating ([8]; 500 g ai/ha): 0; Kochia plant response rating (kochia (Kochia scoparia) [9]; 500 g ai/ha): 0; Pigweed plant response rating (0 to 100 scale) ([10]; 500 g ai/ha): 0; Ryegrass, Italian plant response rating (0 to 100 scale) ([11]; 500 g ai/ha): 0; Foxtail, Giant plant response rating (0 to 100 scale) ([12]; 500 g ai/ha): 90; Ragweed plant response rating (0 to 100 scale) ([13]; 500 g ai/ha): 0; Kochia plant response rating (0 to 100 scale) (kochia (Kochia scoparia) [14]; 500 g ai/ha): 60; Barnyardgrass plant response rating (0 to 100 scale) ([15]; 500 g ai/ha): 90 |
| COc1cc(C)cc(C2CC(C)=[N+]([O-])C2C(=O)Nc2cccc(F)c2F)c1 (stereo not shown) [Compound 91] | 0 | 60 | 20 | 0 | 70 | 50 | 70 | 20 | 0 | 0 | 0 | 80 | 90 | 20 | 0 | 90 | 55 | 0 | 65 | 30 | Blackgrass plant response rating ([2]; 500 g ai/ha): 80; Wheat plant response rating ([3]; 500 g ai/ha): 50; Galium plant response rating ([4]; 500 g ai/ha): 30; Barnyardgrass plant response rating ([5]; 500 g ai/ha): 90; Ryegrass, Italian plant response rating ([6]; 500 g ai/ha): 50; Foxtail, Giant plant response rating ([7]; 500 g ai/ha): 90; Corn plant response rating (corn (Zea mays); 500 g ai/ha): 70; Ragweed plant response rating ([8]; 500 g ai/ha): 30; Kochia plant response rating (kochia (Kochia scoparia) [9]; 500 g ai/ha): 30; Pigweed plant response rating (0 to 100 scale) ([10]; 500 g ai/ha): 60; Ryegrass, Italian plant response rating (0 to 100 scale) ([11]; 500 g ai/ha): 90; Foxtail, Giant plant response rating (0 to 100 scale) ([12]; 500 g ai/ha): 90; Ragweed plant response rating (0 to 100 scale) ([13]; 500 g ai/ha): 70; Kochia plant response rating (0 to 100 scale) (kochia (Kochia scoparia) [14]; 500 g ai/ha): 60; Barnyardgrass plant response rating (0 to 100 scale) ([15]; 500 g ai/ha): 90 |
